Measured values from publication PMC4573335 (Biochemistry, 2015).

Target: T1, hALAS2 (human erythroid-specific 5-aminolevulinate synthase) (Homo sapiens, UniProt P22557)
T1 sequence (P22557 80-587): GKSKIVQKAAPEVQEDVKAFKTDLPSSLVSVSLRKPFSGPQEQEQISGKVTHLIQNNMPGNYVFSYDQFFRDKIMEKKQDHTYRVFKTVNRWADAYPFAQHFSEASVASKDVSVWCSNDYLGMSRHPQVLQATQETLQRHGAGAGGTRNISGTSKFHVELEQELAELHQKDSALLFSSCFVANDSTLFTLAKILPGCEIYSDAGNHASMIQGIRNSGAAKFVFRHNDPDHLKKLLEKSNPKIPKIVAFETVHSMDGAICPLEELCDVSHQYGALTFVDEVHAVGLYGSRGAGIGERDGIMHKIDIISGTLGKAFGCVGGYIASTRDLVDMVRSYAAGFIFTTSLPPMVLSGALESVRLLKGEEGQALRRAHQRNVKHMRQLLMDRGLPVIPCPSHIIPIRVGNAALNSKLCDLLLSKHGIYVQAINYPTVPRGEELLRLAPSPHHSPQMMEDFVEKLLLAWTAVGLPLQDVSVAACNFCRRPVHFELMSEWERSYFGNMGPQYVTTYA
Assay: absorption spectroscopy, A420/A330 ratio
Assay type: binding
Conditions: PLP holoenzyme

Compound: NCC(=O)O [glycine]
- absorption spectroscopy, A420/A330 ratio (PLP-glycine aldimine): In all cases, the A420/A330 ratio was increased upon reaction with glycine
